Results on 3 compounds are retold here after ChEMBL document CHEMBL3112468, “δ-Thiolactones as prodrugs of thiol-based glutamate carboxypeptidase II (GCPII) inhibitors” (J Med Chem, 2014).

In data set [1] the test system is Liver microsome. Nature of the data set: Prodrug conversion in rat liver microsomes assessed as 2-MPPA formation at 10 uM by LC/MS/MS analysis. Type of data set: ADME. As to conditions: TDE = time-dependent effect. For orientation: Liver microsomes are a subcellular fraction often used to study metabolism.
The nature of data set [2]: Prodrug conversion in simulated gastric fluid at pH 1.2 after 48 hrs by HPLC analysis. Type of data set: ADME. As to conditions: simulated gi fluid, pH 1.2, 48 h.
The target in data set [3] is Glutamate carboxypeptidase 2 (Homo sapiens, UniProt Q04609). Nature of the data set: Inhibition of human recombinant GCP2 using N-acetyl-L-aspartyl[3H]-L-glutamate as substrate.
The subject of the next data set is Plasma. The data set can be described thus: Prodrug conversion in rat plasma assessed as 2-MPPA formation at 10 mg/kg, po after 0.25 to 3 hrs. Type of data set: ADME, organism-based. Also on record: dose 10 mg/kg, route oral. As to conditions: in vivo.
The next data set relates to Rattus norvegicus. The data set can be described thus: Antinociceptive effect in rat chronic constriction injury model of neuropathic pain assessed as reduction of CCI-induced thermal hyperalgesia at 10 mg/kg/day, po after 11 to 18 days relative to vehicle-treated control. Type of data set: functional, organism-based.
The test system of data set [4] is Liver microsome. The data set can be described thus: Prodrug conversion in rat liver microsomes at 10 uM after 1.5 hrs by LC/MS/MS analysis. Type of data set: ADME.

The source made the active and inactive calls. The rule behind the calls is not given here.

Sequence of Glutamate carboxypeptidase 2 (Q04609 whole entry): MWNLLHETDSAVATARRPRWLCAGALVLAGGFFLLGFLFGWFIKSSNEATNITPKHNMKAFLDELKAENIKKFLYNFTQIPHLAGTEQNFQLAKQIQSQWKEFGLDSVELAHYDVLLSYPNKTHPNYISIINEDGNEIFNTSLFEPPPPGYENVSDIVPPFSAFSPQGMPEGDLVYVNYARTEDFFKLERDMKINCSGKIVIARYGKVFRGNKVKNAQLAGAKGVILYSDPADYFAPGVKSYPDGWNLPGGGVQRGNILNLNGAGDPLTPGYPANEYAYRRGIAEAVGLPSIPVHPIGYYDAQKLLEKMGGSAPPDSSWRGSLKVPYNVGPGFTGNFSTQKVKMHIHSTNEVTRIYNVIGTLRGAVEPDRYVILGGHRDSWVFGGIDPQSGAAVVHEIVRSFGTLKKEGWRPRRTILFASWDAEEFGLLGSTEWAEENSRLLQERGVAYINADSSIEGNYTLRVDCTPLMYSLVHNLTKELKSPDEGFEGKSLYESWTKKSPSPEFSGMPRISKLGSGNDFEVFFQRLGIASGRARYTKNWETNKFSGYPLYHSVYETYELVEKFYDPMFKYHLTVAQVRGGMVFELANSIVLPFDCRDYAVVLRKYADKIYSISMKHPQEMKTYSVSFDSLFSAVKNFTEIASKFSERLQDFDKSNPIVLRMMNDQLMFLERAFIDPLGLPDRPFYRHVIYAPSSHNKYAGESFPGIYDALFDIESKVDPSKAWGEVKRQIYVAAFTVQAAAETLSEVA

`O=C(O)CCC(CCCS)C(=O)O` (stereo not drawn): the Activity result in the data set with Liver microsome [1] was “tde”.
Take `O=C(O)CCC1CCCSC1=O` (racemic): the Stability entry in data set [2] is “Stable”. Also, the IC50 (in general, the concentration at which inhibition is half-maximal) in data set [3] was 2 µM. Further, in the data set with Plasma, the Drug metabolism result was “Active”. Further, in the data set with Rattus norvegicus, the result was Active.
`O=C(O)c1cccc(-c2cccc3c2C(=O)SCC3)c1`: the Stability entry (in data set [2]; with Liver microsome [4]) was “Stable” throughout. In data set [3], the IC50 worked out at 20 µM.
